Test results taken from US6914045B2, “Glycopeptide antibiotics” (Wyeth Holdings Corporation, priority 2001, dated 2005).
Numbered stars: 1 amine (or outer) side, 2 acyl side, 3 side chain; on linkers, the order of the positions; unused ones are H or OH. Square brackets hold non-standard residues; d marks the D form. Peptide text beside a SMILES is read from it. ξ: configuration not given here. X6 = N=C1NCC(CC(N[*:1])C(=O)[*:2])N1C1OC(CO)C(O)C(O)C1O; Tyr(3-NO2) = N[CH](Cc1ccc(O)c([N+](=O)[O-])c1)C(=O)O; X7 = N=C1NCC(CC(N[*:1])C(=O)[*:2])N1; ξPhe(βξ-Me) = CC(c1ccccc1)C(N)C(=O)O

Key:
Assay in all cases: in vitro antibacterial evaluation, MIC by broth dilution
Type in all cases: cell-based
Escherichia coli = conditions: broth dilution, 18 hours at 35° C.; for MIC Escherichia coli (ATCC 25922): strain ATCC 25922; for MIC Escherichia coli (GC 4559): strain GC 4559; for MIC Escherichia coli (GC 4560): strain GC 4560
Summary of the method: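 Broth dilution in Muller-Hinton II medium per NCCLS standard M7-A2, with an inoculum of 5×10^5 CFU/mL and antibiotic tested over 64-0.06 μg/mL. MIC was taken as the lowest concentration inhibiting visible growth.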

Streptococcus sp. = conditions: broth dilution, 18 hours at 35° C.; for MIC Streptococcus pneumoniae (ATCC 6301): strain ATCC 6301; for MIC Streptococcus pneumoniae (GC 1894): strain GC 1894; for MIC Streptococcus pyogenes (GC 4563): strain GC 4563; for MIC Streptococcus agalactiae (GC 4564): strain GC 4564; for MIC Streptococcus pneumoniae (GC 4565): strain GC 4565
Summary of the method: (§1)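 Inoculum 5×10^5 CFU/mL; concentrations 64 to 0.06 μg/mL; MIC defined as lowest inhibitory level. Conducted by broth dilution under NCCLS guidelines.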

Enterococcus sp. = conditions: broth dilution, 18 hours at 35° C.; for MIC Enterococcus faecalis (ATCC 29212): strain ATCC 29212; for MIC Enterococcus faecalis (GC 2242): strain GC 2242; for MIC Enterococcus faecium (GC 2243): strain GC 2243; for MIC Enterococcus faecalis (GC 2691): strain GC 2691; for MIC Enterococcus faecalis (GC 3059): strain GC 3059; for MIC Enterococcus faecalis (GC 4552): strain GC 4552; for MIC Enterococcus faecalis (GC 4553): strain GC 4553; for MIC Enterococcus faecalis (GC 4554): strain GC 4554; for MIC Enterococcus faecium (GC 4556): strain GC 4556; for MIC Enterococcus faecium (GC 4557): strain GC 4557; for MIC Enterococcus avium (GC 4558): strain GC 4558; for MIC Enterococcus faecalis (GC 6189): strain GC 6189
Summary of the method: as §1

Staphylococcus sp. = tested on: Staphylococcus sp.
Summary of the method: as §1

CC(c1ccccc1)C1NC(=O)CNC(=O)C(CO)NC(=O)C(C(O)C2CNC(=N)N2C2OC(CO)C(O)C(O)C2O)NC(=O)C(C(O)C2CNC(=N)N2)NC(=O)C(Cc2ccc3oc(-c4ccc(OCc5ccccc5)cc4)nc3c2)NC1=O (stereo not drawn) [Example 31, Cyclo[3-[2-[4-(phenylmethoxy)phenyl]-1,3-benzoxazol-5-yl]alanyl-3-(2-iminoimidazolidin-4-yl)seryl-3-(3-hexopyranosyl-2-iminoimidazolidin-4-yl)serylserylglycyl-β-methyl-phenylalanyl]]
64 µg/mL: MIC Streptococcus pneumoniae (GC 4565) (Streptococcus sp.) | MIC Enterococcus faecalis (ATCC 29212) (Enterococcus sp.) | MIC Enterococcus faecalis (GC 2242) (Enterococcus sp.) | MIC Enterococcus faecalis (GC 2691) (Enterococcus sp.) | MIC Enterococcus faecalis (GC 6189) (Enterococcus sp.)
16 µg/mL: MIC Streptococcus pneumoniae (ATCC 6301) (Streptococcus sp.) | MIC Enterococcus faecalis (GC 4553) (Enterococcus sp.) | MIC Staphylococcus aureus (ATCC 29213) (Staphylococcus sp.; strain ATCC 29213; broth dilution, 18 hours at 35° C.) | MIC Staphylococcus aureus (GC 1131) (Staphylococcus sp.; strain GC 1131; broth dilution, 18 hours at 35° C.) | MIC Staphylococcus aureus (GC 3051) (Staphylococcus sp.; strain GC 3051; broth dilution, 18 hours at 35° C.) | MIC Staphylococcus aureus (GC 3053) (Staphylococcus sp.; strain GC 3053; broth dilution, 18 hours at 35° C.) | MIC Staphylococcus aureus (GC 4541) (Staphylococcus sp.; strain GC 4541; broth dilution, 18 hours at 35° C.) | MIC Staphylococcus aureus-SMITH (GC 4543) (Staphylococcus sp.; strain GC 4543; broth dilution, 18 hours at 35° C.) | MIC Staphylococcus aureus (GC 4544) (Staphylococcus sp.; strain GC 4544; broth dilution, 18 hours at 35° C.) | MIC Staphylococcus aureus (GC 4545) (Staphylococcus sp.; strain GC 4545; broth dilution, 18 hours at 35° C.) | MIC Coagulase Negative Staphylococcus (GC 4549) (Staphylococcus sp.; strain GC 4549; broth dilution, 18 hours at 35° C.) | MIC Coagulase Negative Staphylococcus (GC 4551) (Staphylococcus sp.; strain GC 4551; broth dilution, 18 hours at 35° C.)
4 µg/mL: MIC Enterococcus faecium (GC 4556) (Enterococcus sp.) | MIC Enterococcus faecium (GC 4557) (Enterococcus sp.) | MIC Coagulase Negative Staphylococcus (GC 6257) (Staphylococcus sp.; strain GC 6257; broth dilution, 18 hours at 35° C.)
8 µg/mL: MIC Streptococcus pyogenes (GC 4563) (Streptococcus sp.) | MIC Enterococcus avium (GC 4558) (Enterococcus sp.) | MIC Staphylococcus aureus (GC 4542) (Staphylococcus sp.; strain GC 4542; broth dilution, 18 hours at 35° C.) | MIC Staphylococcus haemolyticus (GC 4546) (Staphylococcus sp.; strain GC 4546; broth dilution, 18 hours at 35° C.) | MIC Coagulase Negative Staphylococcus (GC 4547) (Staphylococcus sp.; strain GC 4547; broth dilution, 18 hours at 35° C.) | MIC Coagulase Negative Staphylococcus (GC 4548) (Staphylococcus sp.; strain GC 4548; broth dilution, 18 hours at 35° C.)
>128 µg/mL: MIC Escherichia coli (ATCC 25922) (Escherichia coli) | MIC Escherichia coli (GC 4559) (Escherichia coli)
128 µg/mL: MIC Enterococcus faecalis (GC 3059) (Enterococcus sp.) | MIC Enterococcus faecalis (GC 4552) (Enterococcus sp.) | MIC Enterococcus faecalis (GC 4554) (Enterococcus sp.)
32 µg/mL: MIC Escherichia coli (GC 4560) (Escherichia coli) | MIC Streptococcus pneumoniae (GC 1894) (Streptococcus sp.) | MIC Streptococcus agalactiae (GC 4564) (Streptococcus sp.) | MIC Enterococcus faecium (GC 2243) (Enterococcus sp.)

CC(c1ccccc1)C1NC(=O)CNC(=O)C(CO)NC(=O)C(CC2CNC(=N)N2C2OC(CO)C(O)C(O)C2O)NC(=O)C(CC2CNC(=N)N2)NC(=O)C(Cc2ccc(O)c([N+](=O)[O-])c2)NC1=O (stereo not drawn) [Example 10, Cyclo[3-(2-iminoimidazolidin-4-yl)alanyl-3-(3-hexopyranosyl-2-iminoimidazolidin-4-yl)-alanylserylglycyl-β-methylphenylalanyl-3-nitrotyrosyl]] (cyclo(G[ξPhe(βξ-Me)][Tyr(3-NO2)][X7][X6]S); configuration not given here)
>64 µg/mL: MIC Escherichia coli (ATCC 25922) (Escherichia coli) | MIC Escherichia coli (GC 4559) (Escherichia coli) | MIC Escherichia coli (GC 4560) (Escherichia coli) | MIC Streptococcus pneumoniae (ATCC 6301) (Streptococcus sp.) | MIC Streptococcus pneumoniae (GC 1894) (Streptococcus sp.) | MIC Streptococcus pyogenes (GC 4563) (Streptococcus sp.) | MIC Streptococcus agalactiae (GC 4564) (Streptococcus sp.) | MIC Streptococcus pneumoniae (GC 4565) (Streptococcus sp.) | MIC Enterococcus faecalis (ATCC 29212) (Enterococcus sp.) | MIC Enterococcus faecalis (GC 2242) (Enterococcus sp.) | MIC Enterococcus faecium (GC 2243) (Enterococcus sp.) | MIC Enterococcus faecalis (GC 2691) (Enterococcus sp.) | MIC Enterococcus faecalis (GC 3059) (Enterococcus sp.) | MIC Enterococcus faecalis (GC 4552) (Enterococcus sp.) | MIC Enterococcus faecalis (GC 4553) (Enterococcus sp.) | MIC Enterococcus faecalis (GC 4554) (Enterococcus sp.) | MIC Enterococcus faecium (GC 4556) (Enterococcus sp.) | MIC Enterococcus faecium (GC 4557) (Enterococcus sp.) | MIC Enterococcus avium (GC 4558) (Enterococcus sp.) | MIC Enterococcus faecalis (GC 6189) (Enterococcus sp.) | MIC Staphylococcus aureus (ATCC 29213) (Staphylococcus sp.; broth dilution, 18 hours at 35° C.; strain ATCC 29213) | MIC Staphylococcus aureus (GC 1131) (Staphylococcus sp.; broth dilution, 18 hours at 35° C.; strain GC 1131) | MIC Staphylococcus aureus (GC 3051) (Staphylococcus sp.; broth dilution, 18 hours at 35° C.; strain GC 3051) | MIC Staphylococcus aureus (GC 3053) (Staphylococcus sp.; broth dilution, 18 hours at 35° C.; strain GC 3053) | MIC Staphylococcus aureus (GC 4541) (Staphylococcus sp.; broth dilution, 18 hours at 35° C.; strain GC 4541) | MIC Staphylococcus aureus (GC 4542) (Staphylococcus sp.; broth dilution, 18 hours at 35° C.; strain GC 4542) | MIC Staphylococcus aureus-SMITH (GC 4543) (Staphylococcus sp.; broth dilution, 18 hours at 35° C.; strain GC 4543) | MIC Staphylococcus aureus (GC 4544) (Staphylococcus sp.; broth dilution, 18 hours at 35° C.; strain GC 4544) | MIC Staphylococcus aureus (GC 4545) (Staphylococcus sp.; broth dilution, 18 hours at 35° C.; strain GC 4545) | MIC Staphylococcus haemolyticus (GC 4546) (Staphylococcus sp.; broth dilution, 18 hours at 35° C.; strain GC 4546) | MIC Coagulase Negative Staphylococcus (GC 4547) (Staphylococcus sp.; broth dilution, 18 hours at 35° C.; strain GC 4547) | MIC Coagulase Negative Staphylococcus (GC 4548) (Staphylococcus sp.; broth dilution, 18 hours at 35° C.; strain GC 4548) | MIC Coagulase Negative Staphylococcus (GC 4549) (Staphylococcus sp.; broth dilution, 18 hours at 35° C.; strain GC 4549) | MIC Coagulase Negative Staphylococcus (GC 4551) (Staphylococcus sp.; broth dilution, 18 hours at 35° C.; strain GC 4551) | MIC Coagulase Negative Staphylococcus (GC 6257) (Staphylococcus sp.; broth dilution, 18 hours at 35° C.; strain GC 6257)
